Experiment in all cases: relative viability (nuclei count vs DMSO), 5 days (fraction); higher = more cells survive
Compound in test [1]: O=S(=O)(c1ccccc1)N(CC(F)(F)F)c1ccc(C(O)(C(F)(F)F)C(F)(F)F)cc1 + CS(=O)(=O)CCNCc1ccc(-c2ccc3ncnc(Nc4ccc(OCc5cccc(F)c5)c(Cl)c4)c3c2)o1 [Lapatinib] (partner 2 µM)
Summed up: (§1)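 Five library-drug doses in √10 steps were combined with a fixed anchor-drug dose, or a single drug was given alone, by pin tool to lung cancer cell lines in 1536-well plates the day after seeding. Nuclei were stained and counted after 5 days. Relative viability is the nuclei count in treated wells over that in vehicle wells, taken as the median of duplicate plates.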

Compound in test [2]: C1=CC2=C(C=CC(=C2)C=C3C(=O)NC(=NCC4=CC=CS4)S3)N=C1 [RO-3306] + Nc1ncn([C@H]2C[C@H](O)[C@@H](CO)O2)c(=O)n1 [Decitabine] (partner 2 µM)
Summed up: as §1

Compound in test [3]: C1=CC2=C(C=CC(=C2)C=C3C(=O)NC(=NCC4=CC=CS4)S3)N=C1 [RO-3306] + Cc1cc(Nc2cc(N3CCN(C)CC3)nc(Sc3ccc(NC(=O)C4CC4)cc3)n2)n[nH]1 [Tozasertib] (partner 0.1 µM)
Summed up: as §1

Compound in test [4]: C1=CC2=C(C=CC(=C2)C=C3C(=O)NC(=NCC4=CC=CS4)S3)N=C1 [RO-3306] + N=C(N)NC(=N)NCCc1ccccc1 [Phenformin] (partner 250 µM)
A digest of the protocol: as §1

As for BEN, the relative viability stood at 0.67 in test [1] (first compound 0.8 µM); 0.684 in test [1] (first compound 2.53 µM); 0.629 in test [1] (first compound 8 µM); 0.645 in test [2] (first compound 0.01 µM); 0.69 in test [2] (first compound 0.03162 µM); 0.723 in test [2] (first compound 0.1 µM). In addition, the relative viability in test [2] (first compound 0.3162 µM) was found to be 0.725; in test [2] (first compound 1 µM), 0.824; in test [3] (first compound 0.01 µM), 0.548; in test [3] (first compound 0.03162 µM), 0.47; in test [3] (first compound 0.1 µM), 0.622; in test [3] (first compound 0.3162 µM), 0.608. The relative viability in test [3] (first compound 1 µM) was found to be 0.496; in test [4] (first compound 0.01 µM), 0.298; in test [4] (first compound 0.03162 µM) it was 0.266; in test [4] (first compound 0.1 µM), 0.26; in test [4] (first compound 0.3162 µM), 0.252; in test [4] (first compound 1 µM), 0.263.

Turning to NCI-H2405, the relative viability in test [1] (first compound 0.8 µM) amounted to 1.01; in test [1] (first compound 2.53 µM), 0.962; in test [1] (first compound 8 µM) it was 1.15; in test [2] (first compound 0.01 µM), 0.703; in test [2] (first compound 0.03162 µM) it was 0.751; in test [2] (first compound 0.1 µM), 0.803. Besides, the relative viability in test [2] (first compound 0.3162 µM) came to 0.685; in test [2] (first compound 1 µM) it was 0.727; in test [3] (first compound 0.01 µM) it was 0.746; in test [3] (first compound 0.03162 µM), 0.723; in test [3] (first compound 0.1 µM) it was 0.704; in test [3] (first compound 0.3162 µM), 0.675. The relative viability in test [3] (first compound 1 µM) amounted to 0.628; in test [4] (first compound 0.01 µM), 0.403; in test [4] (first compound 0.03162 µM) it was 0.539; in test [4] (first compound 0.1 µM), 0.356; in test [4] (first compound 0.3162 µM), 0.368; in test [4] (first compound 1 µM) it was 0.554.

Values taken from the supplement of paper PMC10307832.
